# Data taken from patent US8586588B2, “Aryl pyridazinone derivatives and their use as H3 receptor ligands” (Cephalon, Inc., priority 2006, dated 2013).
# Where “and” joins values, the source holds several entries; their conditions need not be identical. Equal entries are not always repeated.
# How the values were obtained:
# human H3 receptor = molecular target: T1, human H3 receptor (Homo sapiens, UniProt Q9Y5N1); test: Human H3 radioligand binding ([3H]-N-alpha-methylhistamine, CHO cell membranes, SPA); conditions: Table B, binding constant as letter class
# T1 construct: expressed in transfected cells
# T1 sequence (Q9Y5N1 whole entry): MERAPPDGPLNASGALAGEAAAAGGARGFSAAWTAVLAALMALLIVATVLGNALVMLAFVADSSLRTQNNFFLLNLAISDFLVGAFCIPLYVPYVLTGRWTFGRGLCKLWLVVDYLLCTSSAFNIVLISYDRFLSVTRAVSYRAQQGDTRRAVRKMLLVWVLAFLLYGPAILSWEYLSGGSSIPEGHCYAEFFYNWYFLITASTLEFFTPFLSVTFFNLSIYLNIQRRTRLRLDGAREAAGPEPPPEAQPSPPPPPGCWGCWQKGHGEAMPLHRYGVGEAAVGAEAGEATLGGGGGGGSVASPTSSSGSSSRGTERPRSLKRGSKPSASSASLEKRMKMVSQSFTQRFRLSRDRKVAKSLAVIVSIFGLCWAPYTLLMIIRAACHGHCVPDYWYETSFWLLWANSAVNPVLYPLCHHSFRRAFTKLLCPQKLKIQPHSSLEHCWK
# Method in brief: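 CHO cell membranes expressing human H3 (10 μg protein/well) incubated 4 h at room temperature, in the dark, with ~1 nM [3H]-N-alpha-methylhistamine, compounds (0.01 nM-30 μM) and SPA beads in 50 mM Tris HCl pH 7.4, 5 mM MgCl2, 0.1% BSA. Non-specific binding defined with 10 μM clobenpropit.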
# [1] = molecular target: T2, rat histamine H3 receptor (Rattus norvegicus, UniProt Q9QYN8); test: Rat H3 radioligand binding ([3H]-N-alpha-methylhistamine, CHO-A3 cell membranes, SPA); conditions: Table B, binding constant as letter class; read-out: rat H3 Ki
# T2 construct: encoding the entire 445-amino-acid rat histamine H3 receptor; expressed in transfected cells
# T2 sequence (Q9QYN8 whole entry): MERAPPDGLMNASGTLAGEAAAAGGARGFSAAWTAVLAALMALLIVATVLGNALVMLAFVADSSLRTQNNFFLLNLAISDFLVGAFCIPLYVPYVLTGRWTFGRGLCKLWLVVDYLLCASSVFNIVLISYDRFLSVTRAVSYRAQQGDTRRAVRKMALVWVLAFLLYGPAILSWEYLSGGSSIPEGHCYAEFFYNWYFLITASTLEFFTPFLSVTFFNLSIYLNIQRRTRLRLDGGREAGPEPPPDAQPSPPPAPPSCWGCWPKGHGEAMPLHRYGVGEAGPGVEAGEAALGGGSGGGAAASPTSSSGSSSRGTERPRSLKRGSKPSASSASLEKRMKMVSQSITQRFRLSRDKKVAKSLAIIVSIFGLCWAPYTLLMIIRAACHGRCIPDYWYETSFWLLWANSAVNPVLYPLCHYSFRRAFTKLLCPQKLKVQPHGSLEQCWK
# Method in brief: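 Membranes from CHO-A3 cells stably expressing rat H3 (10 μg protein) incubated 4 h at room temperature in 50 mM Tris-HCl pH 7.4, 5 mM MgCl2, 0.1% BSA with ~1 nM [3H]-N-alpha-methylhistamine and compound (0.01 nM-30 μM). Bound radioligand read by scintillation proximity; nonspecific binding with 10 μM clobenpropit.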
Compound,Ki (human H3 receptor) [nM],Ki [1]
"O=C1CC(c2ccccn2)C(c2ccc(OC3CCNCC3)cc2)=NN1 (stereo not drawn) [Example 113, 6-[4-(Piperidin-4-yloxy)-phenyl]-5-pyridin-2-yl-4,5-dihydro-2H-pyridazin-3-one]",> 1000,> 1000 nM
"CC1CC(c2ccc(OC3CCN(C4CCC4)CC3)cc2)=NNC1=O (stereo not drawn) [Example 116, 6-[4-(1-Cyclobutyl-piperidin-4-yloxy)-phenyl]-4-methyl-4,5-dihydro-2H-pyridazin-3-one]",0.1 to 100,0.1 to 100 nM
"O=c1cc(-c2ccc(OC3CCN(C4CCC4)CC3)nc2)cn[nH]1 [Example 117, 5-[6-(1-Cyclobutyl-piperidin-4-yloxy)-pyridin-3-yl]-2H-pyridazin-3-one]",0.1 to 100,0.1 to 100 nM
"C[C@@H]1CCCN1CCCOc1ccc(-c2ccc(=O)n(CCF)n2)cc1 [Example 118, 2-(2-Fluoro-ethyl)-6-{4-[3-((R)-2-methyl-pyrrolidin-1-yl)-propoxy]-phenyl}-2H-pyridazin-3-one]",0.1 to 100,0.1 to 100 nM
"C[C@@H]1CCCN1CCCOc1ccc(-c2ccc(=O)[nH]n2)cc1F [Example 119, 6-{3-Fluoro-4-[3-((R)-2-methyl-pyrrolidin-1-yl)-propoxy]-phenyl}-2H-pyridazin-3-one]",0.1 to 100,0.1 to 100 nM
"O=c1ccc(-c2ccc(OCCCN3CCCCC3)c(F)c2)n[nH]1 [Example 120, 6-[3-Fluoro-4-(3-piperidin-1-yl-propoxy)-phenyl]-2H-pyridazin-3-one]",0.1 to 100,101 to 500 nM
"CC1CC(c2ccc(OCCCN3CCC[C@H]3C)cc2)=NNC1=O (stereo partly drawn) [Example 121, 4-Methyl-6-{4-[3-((R)-2-methyl-pyrrolidin-1-yl)-propoxy]-phenyl}-4,5-dihydro-2H-pyridazin-3-one]",0.1 to 100,0.1 to 100 nM
"Cc1cc(-c2ccc(OCCCN3CCC[C@H]3C)cc2)n[nH]c1=O [Example 122, 4-Methyl-6-{4-[3-((R)-2-methyl-pyrrolidin-1-yl)-propoxy]-phenyl}-2H-pyridazin-3-one]",0.1 to 100,0.1 to 100 nM
"Cc1cc(-c2ccc(OCCCN3CCCCC3)cc2)n[nH]c1=O [Example 123, 4-Methyl-6-[4-(3-piperidin-1-yl-propoxy)-phenyl]-2H-pyridazin-3-one]",0.1 to 100,0.1 to 100 nM
"Cn1nc(-c2ccc(OCCCN3CCC[C@H]3CO)cc2)c2c(c1=O)CCCC2 [Example 124, 4-{4-[3-((S)-2-Hydroxymethyl-pyrrolidin-1-yl)-propoxy]-phenyl}-2-methyl-5,6,7,8-tetrahydro-2H-phthalazin-1-one]",0.1 to 100,0.1 to 100 nM
"C[C@@H]1CCCN1CCCOc1cccc(-c2nn(C)c(=O)c3c2CCC3)c1 [Example 125, 2-Methyl-4-{3-[3-((R)-2-methyl-pyrrolidin-1-yl)-propoxy]-phenyl}-2,5,6,7-tetrahydro-cyclopenta[d]pyridazin-1-one]",101 to 500,501 to 1000 nM
"Cn1nc(-c2cccc(OCCCN3CCCCC3)c2)c2c(c1=O)CCC2 [Example 126, 2-Methyl-4-[3-(3-piperidin-1-yl-propoxy)-phenyl]-2,5,6,7-tetrahydro-cyclopenta[d]pyridazin-1-one]",101 to 500,501 to 1000 nM
"Cn1nc(-c2cccc(OCCCN3CCC[C@H]3CO)c2)c2c(c1=O)CCC2 [Example 127, 4-{3-[3-((S)-2-Hydroxymethyl-pyrrolidin-1-yl)-propoxy]-phenyl}-2-methyl-2,5,6,7-tetrahydro-cyclopenta[d]pyridazin-1-one]",501 to 1000,501 to 1000 nM
"CC(C)n1ncc(-c2ccc(OCCCN3CCC[C@H]3C)cc2)cc1=O [Example 128, 2-Isopropyl-5-{4-[3-((R)-2-methyl-pyrrolidin-1-yl)-propoxy]-phenyl}-2H-pyridazin-3-one]",0.1 to 100,0.1 to 100 nM
"C[C@@H]1CCCN1CCCOc1ccc(-c2ccc(=O)n(-c3ncccn3)n2)cc1 [Example 138, 6-{4-[3-((R)-2-Methyl-pyrrolidin-1-yl)-propoxy]-phenyl}-2-pyrimidin-2-yl-2H-pyridazin-3-one]",0.1 to 100,0.1 to 100 nM
"O=c1ccc(-c2ccc(OC3CCN(C4CCCC4)CC3)nc2)n[nH]1 [Example 139, 6-[6-(1-Cyclopentyl-piperidin-4-yloxy)-pyridin-3-yl]-2H-pyridazin-3-one]",0.1 to 100,0.1 to 100 nM
"Cn1nc(-c2ccc(OC3CCN(C4CCCC4)CC3)nc2)ccc1=O [Example 143, 6-[6-(1-Cyclopentyl-piperidin-4-yloxy)-pyridin-3-yl]-2-methyl-2H-pyridazin-3-one]",0.1 to 100,501 to 1000 nM and 0.1 to 100 nM
"Cn1nc(-c2ccc(OC3CCN(C4CCC4)CC3)nc2)ccc1=O [Example 144, 6-[6-(1-Cyclobutyl-piperidin-4-yloxy)-pyridin-3-yl]-2-methyl-2H-pyridazin-3-one]",0.1 to 100,0.1 to 100 nM
"CC1(C)CC(c2ccc(OC3CCN(C4CCC4)CC3)nc2)=NNC1=O [Example 148, 6-[6-(1-Cyclobutyl-piperidin-4-yloxy)-pyridin-3-yl]-4,4-dimethyl-4,5-dihydro-2H-pyridazin-3-one]",0.1 to 100,0.1 to 100 nM
"O=c1ccc(-c2ccc(OC3CCN(C4CCC4)CC3)nc2)nn1-c1ccccn1 [Example 149, 6-[6-(1-Cyclobutyl-piperidin-4-yloxy)-pyridin-3-yl]-2-pyridin-2-yl-2H-pyridazin-3-one]",0.1 to 100,0.1 to 100 nM
O=c1ccc(-c2ccc(OC3CCN(C4CCC4)CC3)cc2)nn1-c1ccccn1 [Example 157],0.1 to 100,0.1 to 100 nM
"O=C1CCC(c2ccc(OC3CCN(C4CCC4)CC3)cc2)=NN1c1ccccn1 [Example 158, 6-[4-(1-Cyclobutyl-piperidin-4-yloxy)phenyl]-2-pyridin-2-yl-4,5-dihydro-2H-pyridazin-3-one]",0.1 to 100,0.1 to 100 nM
"O=c1ccc(-c2ccc(O[C@@H]3CCN(C4CCC4)C3)cc2)n[nH]1 [Example 161, 6-[4-((R)-1-Cyclobutyl-pyrrolidin-3-yloxy)-phenyl]-2H-pyridazin-3-one]",> 1000,> 1000 nM
"O=C1CCC(c2ccc(O[C@@H]3CCN(C4CCCC4)C3)cc2)=NN1 [Example 162, 6-[4-((R)-1-Cyclopentyl-pyrrolidin-3-yloxy)-phenyl]-4,5-dihydro-2H-pyridazin-3-one]",501 to 1000,> 1000 nM
"O=C1NN=C(c2ccc(OC3CCN(C4CCC4)CC3)cc2)C2CCC12 (stereo not drawn) [Example 172, 5-[4-(1-Cyclobutyl-piperidin-4-yloxy)-phenyl]-3,4-diaza-bicyclo[4.2.0]oct-4-en-2-one]",0.1 to 100,0.1 to 100 nM
"C[C@@H]1CCCN1CCCOc1ccc(C2=NNC(=O)CC2)cc1 [Example 178, 6-{4-[3-((R)-2-Methyl-pyrrolidin-1-yl)-propoxy]-phenyl}-4,5-dihydro-2H-pyridazin-3-one]",0.1 to 100,0.1 to 100 nM
"C[C@@H]1CCCN1CCCOc1ccc(C2=NN(c3ccccn3)C(=O)CC2)cc1 [Example 183, 6-{4-[3-((R)-2-Methyl-pyrrolidin-1-yl)-propoxy]-phenyl}-2-pyridin-2-yl-4,5-dihydro-2H-pyridazin-3-one]",0.1 to 100,0.1 to 100 nM
